Data as given in PMC5833389 (Oncogenesis, 2018).
Like-named read-outs stand apart in the source and are kept apart here.

Key:
FER = target: T1, FER (Homo sapiens, UniProt P16591); assay: FER kinase assay, Z'-LYTE; assay type: biochemical
T1 construct: purchased Invitrogen/Life Technologies
Description: (§1) IC50 values on FAK and PYK2 were determined using the DELFIA® format, using kinase proteins obtained from Invitrogen (#PV3832, #PV4567) and biotinylated poly(Glu,Tyr) as substrate. Incubation in the presence of test compound was followed by detection of phosphorylated substrate using streptavidin-coated plates and Eu-N1 anti-phospho-Tyr PT66 antibody (#AD0040, VICTOR™ reader, both Perkin Elmer). Data were analyzed using GraphPad Prism. […] Data was fitted by iterative calculation using a sigmoidal curve analysis with variable Hill slope. In independent assays, IC50 values were determined using Z'-LYTE® technology, which is based on FRET (Invitrogen/Life Technologies). Selectivity was determined on the Invitrogen kinase panel at 1 µmol/L.

[1] = Single-dose pharmacokinetics in nude mice; assay type: in vivo
Text: (§2) Plasma and homogenized tumor samples were extracted and analyzed by LC-MS. Detection was at unit resolution with a MRM 589.2/474.8. All calibration and QC samples were with ±20% (p.o.) and ±30% (i.v.) of the nominal value in the linear range of the calibration fitted with a linear regression and 1/x^2 weighting.

[2] = Drug concentrations in plasma and tumor of PC-3 tumor-bearing mice; assay type: in vivo; conditions: BomTac:NMRI-Foxn1^nu, mouse; for concentration at 24 h: oral
Text: as §2

PC-3 cells = assay: Clonogenic assay in soft agar (anchorage-independent growth); assay type: cell-based, human; conditions: Homo sapiens, PC-3, alamarBlue, read-out: Colony formation EC50 PC-3
Description: Clonogenic assays were performed using agarose-containing media. Cells were incubated at 37 °C and 5% CO2 for 14 days. alamarBlue® was used to detect colonies of viable cells (530 nm/590 nm). Data analysis was performed as described above.

PTK2B/PYK2 [3] = target: T2, PTK2B/PYK2 (Homo sapiens, UniProt Q14289); assay: PYK2 kinase assay, DELFIA format; assay type: biochemical
T2 construct: purchased Invitrogen/Life Technologies
T2 sequence (Q14289 whole entry): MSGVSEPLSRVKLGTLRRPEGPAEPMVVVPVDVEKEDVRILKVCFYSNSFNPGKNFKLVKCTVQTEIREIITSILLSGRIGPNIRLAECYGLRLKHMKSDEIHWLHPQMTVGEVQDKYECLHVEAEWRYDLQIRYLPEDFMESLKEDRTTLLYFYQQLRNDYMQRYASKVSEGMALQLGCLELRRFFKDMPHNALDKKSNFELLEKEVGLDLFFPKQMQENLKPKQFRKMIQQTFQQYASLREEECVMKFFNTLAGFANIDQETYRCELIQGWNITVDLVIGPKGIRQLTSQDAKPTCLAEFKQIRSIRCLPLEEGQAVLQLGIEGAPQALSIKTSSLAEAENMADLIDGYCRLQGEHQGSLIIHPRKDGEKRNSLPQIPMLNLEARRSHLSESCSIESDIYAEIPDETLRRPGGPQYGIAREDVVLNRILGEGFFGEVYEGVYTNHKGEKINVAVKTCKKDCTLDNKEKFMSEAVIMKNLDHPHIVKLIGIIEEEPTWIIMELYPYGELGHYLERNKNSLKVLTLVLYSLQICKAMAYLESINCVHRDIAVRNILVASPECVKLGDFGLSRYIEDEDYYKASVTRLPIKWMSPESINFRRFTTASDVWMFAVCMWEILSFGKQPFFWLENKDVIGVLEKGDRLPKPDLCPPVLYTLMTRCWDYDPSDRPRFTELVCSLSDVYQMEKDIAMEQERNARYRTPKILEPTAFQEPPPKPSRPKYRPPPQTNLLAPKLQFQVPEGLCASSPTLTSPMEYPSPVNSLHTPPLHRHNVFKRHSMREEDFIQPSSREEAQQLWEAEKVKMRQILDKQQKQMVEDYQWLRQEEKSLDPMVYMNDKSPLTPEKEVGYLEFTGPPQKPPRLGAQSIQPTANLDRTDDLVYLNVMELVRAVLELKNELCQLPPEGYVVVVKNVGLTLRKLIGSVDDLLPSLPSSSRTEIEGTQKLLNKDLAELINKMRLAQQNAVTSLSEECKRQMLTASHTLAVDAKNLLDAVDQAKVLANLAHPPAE
Description: as §1, with “Technologies).” for “Technologies). Selectivity was determined on the Invitrogen kinase panel at 1 µmol/L.”

PTK2B/PYK2 [4] = target: T2, PTK2B/PYK2; assay: PYK2 kinase assay, Z'-LYTE (FRET); assay type: biochemical
Description: as §1, with “Technologies).” for “Technologies). Selectivity was determined on the Invitrogen kinase panel at 1 µmol/L.”

[5] = clinical trials NCT01905111 and NCT01335269; cited from earlier work
[6] = system: panel of 243 cancer cell lines; assay: Cancer cell line panel, 2D proliferation (Eurofins Panlabs); assay type: cell-based, human; conditions: 2D culture
Description: (§3) Drug sensitivity of a panel of human cancer cell lines was tested at Eurofins Panlabs (Bothell, WA, USA). Cells were treated for 72 h, fixed and stained with diaminophenylindole to visualize nuclei and the fluorescence intensity of each well was measured (GE Healthcare IN Cell Analyzer 1000). Relative cell proliferation in compound-treated cultures (signal as percent of control, “POC”) was calculated as follows: POC (t = 72 h) = 100 × fluorescence (compound wells) / fluorescence (control wells). In addition, for each compound-treated culture, the cell count after incubation for 72 h (POC [t = 72 h]) was related to the count at start of treatment (POC [t = 0 h]): POC [t = 0 h] = 100 × fluorescence at t = 0 [control wells]/fluorescence at t = 72 h [control wells]). To calculate concentration–response curves, POC data were analyzed using a four-parameter log-logistic function without upper or lower limitation.

[7] = system: Calu-6 lung adenocarcinoma cells; assay: as above; assay type: cell-based, human; conditions: Calu-6, 2D culture, 72 h
Description: as §3

PC-3 = assay: as above; assay type: cell-based, human; conditions: PC-3, 2D culture, 72 h
Description: as §3

NCI-H2110 lung xenograft = assay: Subcutaneous xenograft efficacy; assay type: in vivo, mice
Description: Statistical evaluation was performed using SAS 8.2 (SAS Institute, Cary, NC, USA) and Proc StatXact (Cytel Software, Cambridge, MA, USA).
where Td and Cd denote the median of the tumor volume in the treatment group and the control group at day d, respectively. A one-sided increasing Wilcoxon test was applied to compare each experimental group with the vehicle control, the p values were adjusted for multiple comparisons according to Bonferroni–Holm. The level of significance was fixed at α = 5%. An adjusted p value of <0.05 was considered to show a significant difference between groups.

[8] = female, BomTac:NMRI-Foxn1^nu, mouse, plasma, single oral dose 50 mg/kg

T1 sequence (P16591 whole entry): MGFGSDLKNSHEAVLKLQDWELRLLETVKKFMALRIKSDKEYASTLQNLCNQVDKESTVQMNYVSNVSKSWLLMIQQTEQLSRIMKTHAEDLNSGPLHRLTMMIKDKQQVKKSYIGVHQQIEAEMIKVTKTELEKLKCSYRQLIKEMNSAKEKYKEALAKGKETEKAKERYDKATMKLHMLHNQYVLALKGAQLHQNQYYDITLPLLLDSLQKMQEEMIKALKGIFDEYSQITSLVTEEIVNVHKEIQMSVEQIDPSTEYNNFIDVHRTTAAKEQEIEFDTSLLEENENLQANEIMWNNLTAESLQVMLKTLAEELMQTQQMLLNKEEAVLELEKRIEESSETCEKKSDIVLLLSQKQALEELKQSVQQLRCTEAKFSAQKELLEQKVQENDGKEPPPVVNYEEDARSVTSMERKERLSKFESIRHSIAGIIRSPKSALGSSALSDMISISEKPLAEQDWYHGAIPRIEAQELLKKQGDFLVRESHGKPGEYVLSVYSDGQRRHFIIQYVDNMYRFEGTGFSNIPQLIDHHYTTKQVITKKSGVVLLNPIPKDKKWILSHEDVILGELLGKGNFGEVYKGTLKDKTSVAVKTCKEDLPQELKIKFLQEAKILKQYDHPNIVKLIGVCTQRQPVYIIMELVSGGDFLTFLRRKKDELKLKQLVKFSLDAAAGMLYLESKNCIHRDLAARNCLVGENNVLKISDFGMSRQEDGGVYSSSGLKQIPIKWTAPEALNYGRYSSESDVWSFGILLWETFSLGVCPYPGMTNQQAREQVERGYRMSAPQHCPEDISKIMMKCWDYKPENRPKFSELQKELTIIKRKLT

COc1cc(C(=O)NC2CCN(C)CC2)c(F)cc1Nc1ncc(C(F)(F)F)c(Oc2cccc3c2C(=O)N(C)C3)n1 [BI 853520]
IC50 (FER): 0.903 µM
clearance ([1]; BomTac:NMRI-Foxn1^nu, mouse, plasma, single intravenous dose 5 mg/kg, female nude mice): 2.16 L/h/kg
MRT ([1]; BomTac:NMRI-Foxn1^nu, mouse, plasma, single intravenous dose 5 mg/kg, female nude mice, read-out: mean residence time): 3 h
Vd ([1]; BomTac:NMRI-Foxn1^nu, mouse, plasma, single intravenous dose 5 mg/kg, female nude mice, read-out: volume of distribution): 6.6 L/kg
bioavailability [1, 8]: 90%
half-life [1, 8]: 5 h
Tmax ([1]; female, BomTac:NMRI-Foxn1^nu, mouse, single oral dose 50 mg/kg, plasma, read-out: time of maximal concentration): 2 h
AUC ([1]; single oral dose 50 mg/kg): 46 µM·h
maximal concentration ([1]; single oral dose 50 mg/kg, plasma): 4.4 µmol/L
concentration at 24 h ([2]; PC-3 tumor tissue, 50 mg/kg p.o. qdx4, 24 h after dose on day 4, PC-3 tumors, read-out: concentration in tumor tissue): 8.9 µM
Tmax ([2]; PC-3 tumor tissue, po, 50 mg/kg p.o. qdx4, day 4, PC-3 tumors, read-out: time of peak level in tumor tissue): 6 h
concentration at 24 h ([2]; plasma, 50 mg/kg p.o. qdx4, 24 h after dose on day 4, read-out: plasma level): 1.3 µM
EC50 (PC-3 cells): 0.003 µM
IC50 (PTK2B/PYK2 [3]): > 50 µM
IC50 (PTK2B/PYK2 [4]): 2 µM
oral bioavailability in patients [5]: orally bioavailable
safety profile in patients [5]: favorable safety profile
EC50 ([6]; Homo sapiens, few cell lines with interpretable sigmoid curves): 0.003 to 0.03 µM
effect on proliferation, vast majority of cell lines ([6]; concentrations as high as 1 µmol/L): not affected
maximal inhibition of proliferation ([6]; few cell lines with interpretable sigmoid curves): 20–30%
maximal inhibition of proliferation [7]: 40%
EC50 ([7]; Homo sapiens): 0.003 µM
EC50 (PC-3; Homo sapiens): 0.01 µM
maximal inhibition of proliferation (PC-3): 20%
Sensitivity (NCI-H2110 lung xenograft): moderately sensitive (“moderately sensitive” for statistically significant TGI values of 57–83%)
